Experimental data reported in the supplement of paper PMC10307832.

Experiments:
Experiment in all cases: relative viability (nuclei count vs DMSO), 5 days (fraction); higher = more cells survive
[1] = compound: C1=CC(=CC=C1C2=CC(=C(S2)NC(=O)N)C(=O)N)F [TPCA-1] + CCNC(=O)c1noc(-c2cc(C(C)C)c(O)cc2O)c1-c1ccc(CN2CCOCC2)cc1 [Luminespib] (partner 0.01 µM)
Method in brief: (§1)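 One day after seeding in 1536-well plates, lung cancer cell lines were dosed by pin tool. Dosing was either single-drug or a fixed anchor-drug dose plus five library-drug doses (not always all listed) in √10 steps. After 5 days, nuclei were stained in one fix-and-stain step and counted on 4× images, and relative viability is the nuclei count of treated wells over that of vehicle wells, given as the median of duplicate plates.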

[2] = compound: C[C@]12O[C@H](C[C@]1(O)CO)n1c3ccccc3c3c4c(c5c6ccccc6n2c5c31)CNC4=O [Lestaurtinib] + CCNC(=O)c1noc(-c2cc(C(C)C)c(O)cc2O)c1-c1ccc(CN2CCOCC2)cc1 [Luminespib] (partner 0.01 µM)
Method in brief: as §1

[3] = compound: C[C@]12O[C@H](C[C@]1(O)CO)n1c3ccccc3c3c4c(c5c6ccccc6n2c5c31)CNC4=O [Lestaurtinib] + N=C(N)NC(=N)NCCc1ccccc1 [Phenformin] (partner 250 µM)
Method in brief: as §1

[4] = compound: C[C@]12O[C@H](C[C@]1(O)CO)n1c3ccccc3c3c4c(c5c6ccccc6n2c5c31)CNC4=O [Lestaurtinib] + C[C@@H](Oc1cc(-c2cnn(C3CCNCC3)c2)cnc1N)c1c(Cl)ccc(F)c1Cl [Crizotinib] (partner 1 µM)
Method in brief: as §1

Cell Line | relative viability ([1]; first compound 0.04 µM) | relative viability ([1]; first compound 0.1265 µM) | relative viability ([1]; first compound 0.4 µM) | relative viability ([1]; first compound 1.265 µM) | relative viability ([1]; first compound 4 µM) | relative viability ([2]; first compound 0.005 µM) | relative viability ([2]; first compound 0.01581 µM) | relative viability ([2]; first compound 0.05 µM) | relative viability ([2]; first compound 0.1581 µM) | relative viability ([2]; first compound 0.5 µM) | relative viability ([3]; first compound 0.005 µM) | relative viability ([3]; first compound 0.01581 µM) | relative viability ([3]; first compound 0.05 µM) | relative viability ([3]; first compound 0.1581 µM) | relative viability ([3]; first compound 0.5 µM) | relative viability ([4]; first compound 0.005 µM) | relative viability ([4]; first compound 0.01581 µM) | relative viability ([4]; first compound 0.05 µM) | relative viability ([4]; first compound 0.1581 µM) | relative viability ([4]; first compound 0.5 µM)
HOP-62 | 0.98 | 0.924 | 0.93 | 0.893 | 0.812 | 0.9 | 1.07 | 0.855 | 0.913 | 0.274 | 0.637 | 0.768 | 0.485 | 0.613 | 0.274 | 0.905 | 0.919 | 0.972 | 0.721 | 0.18
NCI-H2347 | 0.694 | 0.33 | 0.344 | 0.453 | 0.242 | 0.501 | 0.661 | 0.404 | 0.246 | 0.297 | 0.304 | 0.448 | 0.316 | 0.309 | 0.39 | 0.715 | 0.854 | 0.71 | 0.585 | 0.545
NCI-H1563 | 0.522 | 0.601 | 0.521 | 0.532 | 0.451 | 0.554 | 0.495 | 0.546 | 0.5 | 0.48 | 0.625 | 0.711 | 0.677 | 0.577 | 0.58 | 0.913 | 0.921 | 0.837 | 0.907 | 0.794
LXF-289 | 0.787 | 0.649 | 0.748 | 0.703 | 0.596 | 0.833 | 0.746 | 0.421 | 0.33 | 0.293 | 0.515 | 0.498 | 0.42 | 0.302 | 0.213 | 0.791 | 0.815 | 0.568 | 0.798 | 0.183
LU99A | 0.34 | 0.302 | 0.241 | 0.349 | 0.231 | 0.235 | 0.245 | 0.221 | 0.249 | 0.185 | 0.819 | 0.76 | 0.627 | 0.438 | 0.315 | 0.606 | 0.49 | 0.275 | 0.314 | 0.162
PC-14 | 0.133 | 0.165 | 0.177 | 0.146 | 0.143 | 0.154 | 0.154 | 0.172 | 0.108 | 0.151 | 0.445 | 0.871 | 0.633 | 0.353 | 0.106 | 0.883 | 0.958 | 0.786 | 0.595 | 0.688
NCI-H2085 | 0.427 | 0.408 | 0.574 | 0.473 | 0.45 | 0.436 | 0.449 | 0.57 | 0.41 | 0.337 | 0.716 | 0.664 | 0.602 | 0.65 | 0.492 | 0.904 | 0.856 | 0.748 | 0.884 | 0.692
NCI-H2170 | 0.968 | 0.703 | 0.535 | 0.681 | 0.277 | 0.501 | 0.519 | 0.593 | 0.383 | 0.266 | 0.41 | 0.424 | 0.42 | 0.32 | 0.244 | 1.05 | 1.06 | 0.68 | 0.924 | 0.292
NCI-H2126 | 0.94 | 0.947 | 0.984 | 0.797 | 0.676 | 0.944 | 0.891 | 0.776 | 0.817 | 0.538 | 0.525 | 0.565 | 0.482 | 0.412 | 0.326 | 1.06 | 1.1 | 0.835 | 0.973 | 0.682
H3255 | 0.696 | 0.893 | 0.836 | 0.822 | 0.622 | 0.766 | 0.94 | 0.835 | 0.716 | 0.486 | 0.313 | 0.315 | 0.379 | 0.286 | 0.294 | 0.879 | 0.988 | 0.825 | 0.649 | 0.461
HCC-15 | 0.458 | 0.326 | 0.341 | 0.366 | 0.374 | 0.365 | 0.552 | 0.341 | 0.294 | 0.157 | 0.538 | 0.55 | 0.334 | 0.305 | 0.132 | 1.04 | 1.01 | 0.595 | 0.628 | 0.291
NCI-H661 | 0.973 | 0.934 | 0.962 | 0.846 | 0.806 | 0.895 | 0.88 | 0.853 | 0.729 | 0.363 | 0.271 | 0.277 | 0.303 | 0.251 | 0.248 | 1.01 | 0.84 | 0.97 | 0.927 | 0.676
NCI-H2009 | 0.977 | 1.05 | 1.01 | 1.02 | 1.03 | 1.13 | 1.08 | 0.993 | 0.858 | 0.637 | 0.51 | 0.46 | 0.437 | 0.465 | 0.235 | 1.02 | 1.09 | 1 | 0.637 | 0.454
HCC-44 | 0.958 | 1.03 | 1.02 |  | 0.983 | 1.14 | 1.22 | 0.623 | 0.873 | 0.308 | 0.194 | 0.193 | 0.173 | 0.283 | 0.185 | 0.878 | 0.822 | 0.685 | 0.929 | 0.607
ChaGo-K-1 | 0.766 | 0.689 | 0.698 | 0.453 | 0.302 | 0.62 | 0.706 | 0.698 | 0.479 | 0.223 | 0.484 | 0.447 | 0.448 | 0.333 | 0.275 | 1.25 | 1.33 | 0.855 | 0.778 | 0.381
COR-L23 | 0.682 | 0.602 | 0.762 | 0.625 | 0.381 | 0.558 | 0.756 | 0.226 | 0.288 | 0.164 | 0.527 | 0.551 | 0.256 | 0.327 | 0.14 | 0.707 | 0.763 |  | 0.489 | 0.161
EMC-BAC-2 | 1.24 | 1.13 | 1.16 | 1.35 | 1.13 | 1.15 | 1.33 | 0.806 | 0.434 | 0.323 | 0.476 | 0.567 | 0.424 | 0.364 | 0.26 | 0.722 | 0.76 | 0.599 | 0.569 | 0.264
LCLC-103H | 0.97 | 0.99 | 0.852 | 0.965 | 0.752 | 1.04 | 1.08 | 0.767 | 0.501 | 0.34 | 0.336 | 0.379 | 0.327 | 0.288 | 0.234 | 1.11 | 1.02 | 0.867 | 0.761 | 0.593
LK-2 | 0.216 | 0.188 | 0.216 | 0.175 | 0.167 | 0.202 | 0.19 | 0.17 | 0.208 | 0.203 | 0.542 | 0.738 | 0.275 | 0.233 | 0.217 | 0.241 | 0.264 | 0.267 | 0.188 | 0.188
SW 1573 | 0.186 | 0.181 | 0.217 | 0.204 | 0.188 | 0.218 | 0.236 | 0.182 | 0.315 | 0.131 | 0.421 | 0.439 | 0.214 | 0.28 | 0.0937 | 0.929 | 0.88 | 0.544 | 0.423 | 0.343
NCI-H2405 | 0.792 | 0.627 | 0.709 | 0.622 | 0.618 | 0.747 | 0.631 | 0.585 | 0.548 | 0.262 | 0.426 | 0.392 | 0.387 | 0.28 | 0.284 | 0.852 | 0.87 | 0.767 | 0.698 | 0.578
NCI-H2087 | 0.171 | 0.176 | 0.156 | 0.15 | 0.141 | 0.158 | 0.253 | 0.163 | 0.148 | 0.165 | 0.462 | 0.44 | 0.43 | 0.416 | 0.344 | 1.07 | 0.789 | 1.04 | 0.746 | 0.253
NCI-H460 | 0.0339 | 0.0348 | 0.0261 | 0.0343 | 0.0263 | 0.0333 | 0.0274 | 0.0352 | 0.0238 | 0.0199 | 0.583 | 0.533 | 0.401 | 0.307 | 0.0805 | 1.16 | 0.905 | 0.448 | 0.676 | 0.516
LOU-NH91 | 0.346 | 0.254 | 0.397 | 0.255 | 0.318 | 0.341 | 0.262 | 0.254 | 0.301 | 0.224 | 0.677 | 0.722 | 0.647 | 0.506 | 0.362 | 0.755 | 0.718 | 0.627 | 0.547 | 0.469
NCI-H1651 | 0.839 | 0.979 | 0.835 | 0.915 | 1 | 0.866 | 0.938 | 0.897 | 0.806 | 0.461 | 0.326 | 0.429 | 0.295 | 0.329 | 0.184 | 0.897 | 0.997 | 0.837 | 0.858 | 0.551
NCI-H441 | 0.448 | 0.414 | 0.386 | 0.297 | 0.19 | 0.375 | 0.277 | 0.329 | 0.399 | 0.409 | 0.885 | 0.854 | 0.533 | 0.767 | 0.555 | 0.912 | 0.654 | 0.395 | 0.505 | 0.308
